In patent publication US11993594B2, “IRAK inhibitors and method for making and using” (Rigel Pharmaceuticals, Inc., priority 2016, dated 2024) one finds EC50 data, which are given here for twelve compounds.

Each structure is given as a SMILES string. Read-outs that look alike come from different tables or passages of the source.

The subject of test [1] is LPS induced IL-23 (p19/p40) in DC cells. Kind of test: IL23-p19 ELISA, dendritic (DC) cells differentiated from human PBMC, LPS stimulated. The format is cell-based. The settings on record: LPS 1 μg/ml, 18 hours, 10 pt. The protocol: Compound Screening Using DC Cells
Human PBMC cells (400 million) obtained from the vendor were transferred into a T-175 flask containing 15 ml RPMI media (10% FBS) and incubate for 2 hours at 37° C. After 2 hours, the media including floating cells was aspirated out carefully and 12 ml of fresh RPMI media (10% FBS) containing GMCSF (100 ng/ml) and IL4 (20 ng/ml) was added, and the flask was kept in a 37° C. incubator for 7 days.
After 3 days, fresh GMCSF (100 ng/ml) and IL4 (20 ng/ml) were added to the flask and the incubation continued. After 7 days, the fully differentiated cells were harvested by spinning down (1200 rpm/5 min) and aspirating the media. The cells were suspended in fresh RPMI media (10% FBS) containing 50 ng/ml IFNγ (1000 U/ml) and then plated (50K/well in 100 μl) onto a white clear bottom 96 well plate and left in a 37° C. incubator for 24 hours.
After 24 hours incubation, 100 μl of RPMI media was added containing 2× concentrated test compound per well to the above cell-culture media (final concentration becomes 1×) and the plates were pre-incubated for 1 hour at 37° C. before stimulating with LPS.
After 1 hour compound pre-incubation, 10 μl per well of 20× concentrated LPS solution in RPMI media was added to give a final concentration of 1 μg/ml. The mixture was shaken and incubated the plates at 37° C. for an additional 18 hours.
155 μl of the supernatant was harvested from each well carefully (without the tip touching the bottom of the well) and to the remaining 50 μl/well of the cell culture plate was added 50 μl of Cell Titer Glo reagent. The mixture was incubated for 1-2 minutes on a shaker and the plate was read for luminescence intensity to determine the compound cytotoxicity. The cell culture supernatant collected above was used to carry out IL23 ELISA (65 μl—Supernatant) and IL10 ELISA (90 μl—Supernatant) as described below.
Human IL-23 (p19/p40) ELISA Protocol (e-Biosciences)
To 10.5 ml PBS add 50 μl of anti-IL23 (p19) was added capture antibody (2.5 μg/ml). The mixture was mixed well and 100 μl of the coating solution was added to each well of the 96 well white plates from Pierce. The wells were covered and incubated overnight at 4° C.
The anti-IL23 (p19)-antibody-coated plates were washed 2× using TBST (use plate washer) and blocked using 200 μl of 0.5% Casein for 1.5 to 2 hours at room temperature with shaking.
The plates were washed 2× using TBST and the supernatant was transferred (65 μl/well) to the above pre-blocked/IL23(p19)-antibody-coated 96 well plate, and incubated at room temperature for 1.5 hours with shaking.
The plates were washed 4× using TBST (plate washer) and 100 μl/well detection antibody solution prepared from 2 μl of biotin labeled anti-IL-12 (p40/p70) antibody in 11 ml 1% BSA/PBS solution (1-5000 dilution) was added. The plates were incubated for 1 hour with shaking at Room temperature.
Again, the plates were washed 4× with TBST and 100 μl of HRP labeled Streptavidin (R&D Systems) solution (10 μl/10 ml 1% BSA solution) was added, and the plates were incubated at room temperature for another 45 minutes with shaking.
After 45 minutes, the plates were washed with TBST 4× and 100 μl/well Super Signal ELISA Pico Chemiluminescent Substrate from Pierce (3.5 ml A+3.5 ml B+3.5 ml MQ water) was added. The plates were shaken for 1-2 minutes then read on a plate reader. […]
On the technique in general: ELISA stands for enzyme-linked immunosorbent assay.

Test [2] has as its system LPS Induced IL23p19 in THP-1 Cells. Kind of test: LPS Induced IL23p19 in THP-1 Cells (with IFNγ Primed) Assay. The format is cell-based, human. The settings on record: THP-1 cells primed with IFNγ 50 ng/mL, LPS 1 ug/mL, 18 hours, 10 pt, read-out: IL23-p19 ELISA, THP1-IFNγ, LPS, 10 pt EC50. The source says:
LPS Induced IL23p19 in THP-1 Cells (with IFNγ Primed) Assay
THP-1 Cells (ATCC, Cat #TIB-202), Dimethyl Sulfoxide (DMSO) (Sigma-Aldrich, Cat #D2650), RPMI 1640 (Cellgro, Cat #10-040-CM), Fetal Bovine Serum (Sigma, Cat #F4135), Albumin From Bovine Serum (BSA) (Sigma-Aldrich, Cat #A7906), LPS (Serotype K-235, Sigma, Product Number L 2143), IFNγ (Peprotech, Cat #300-02) Capture antibody: Human IL-23p19 ELISA (e-Bioscience, Cat. #14-7238-85), Detection antibody: Primary Mouse Biotinylated anti-human IL-12(p40/p70) (e-Bioscience, Cat. #13-7129-85), Secondary HRP-conjugated Streptavidin (R&D Systems, Cat #DY998), 1×PBST Washing Buffer (PBS-Tween tablet) (VWR International, Cat #80058-558), ELISA Blocking Buffer (PBS with 1% BSA), ELISA Dilution Buffer (PBS with 1% BSA), 384 Well Flat-Bottom, MaxiSorp Black Immuno Plates (Thermo Scientific, Cat #12-565-346), 384 Well Flat-Bottom, White Tissue Culture Plates (Thermo Scientific, Cat #12-565-343), Super Signal ELISA Pico Chemiluminescent Substrate (Thermo Scientific, Cat #37070), Cell Titer Glo reagent (Promega, Cat #G7573), Positive control, IKK2VI inhibitor (Calbiochem, Cat #401483), AquaMax 4000 plate washer (Molecular Devices), Luminometer, Wallac Victor2 1420 Multilabel Counter.
On day 1, 50K/well THP-1 cells were seeded and primed with IFNγ (50 ng/mL) in 384-well plates for about 18 hours in RPMI media with 10% FBS. On day 2, the compound was serially diluted in DMSO from 5 mM in 3-fold dilutions, and then diluted 1:125 in RPMI media with 10% FBS. 50 μL/well 2× compound was added to 50 μL/well THP-1 cells (with IFNγ primed) in duplicate in 384 well tissue culture plates. The cells were pre-incubated with compound for 1 hour at 37° C., 5% CO2 before addition of 10 μL/well 11×LPS to give a final concentration of 1 ug/mL LPS. Day 3, after stimulation for 18 hours at 37° C., 5% CO2, the assay plate was centrifuged and 70 μL/well supernatant was harvested. IL-23p19 protein in 70 µL/well of supernatant was measured by sandwich ELISA, and 25 μl/well Cell Titer Glo reagent was added to the remaining cells to measure compound toxicity.
Human IL-23p19 Sandwich ELISA:
Maxisorp immuno ELISA plates were pre-coated with 25 μL/well of anti-IL-23p19 capture antibody (2.5 ug/mL) in PBS overnight at room temperature. After washing with 1×PBST, the plates were blocked using 100 μL/well of 1% BSA in PBS for 2 hours at room temperature. The plates were washed three times with 1×PBST and 70 μL/well supernatant were added. The plates were incubated at room temperature for 2 hours with shaking and washed three times with 1×PBST. 25 μL/well of biotin labeled anti-IL-12(p40/p70) detection antibody (100 ng/mL) in PBS with 1% BSA was added and the plates were incubated at room temperature for 2 hours with shaking. After washing three times with 1×PBST, 25 μL/well of streptavidin-HRP (1:200) in PBS with 1% BSA was added and the plates were incubated at room temperature for 20 minutes with shaking. The plates were washed three times with 1×PBST and 25 μL/well of Super Signal ELISA Pico Chemiluminescent Substrate were added. The plates were read with a luminometer, and the chemiluminescence values were entered into Athena (Rigel) for curve fitting, EC50 calculation, and database storage. […]

Take `O=C(Nc1cn(C2CCOCC2)nc1-c1ccccn1)c1coc(-c2cn[nH]c2)n1` [Compound I-20, 2-(1H-pyrazol-4-yl)-N-(3-(pyridin-2-yl)-1-(tetrahydro-2H-pyran-4-yl)-1H-pyrazol-4-yl)oxazole-4-carboxamide]: the EC50 (commonly the concentration needed to bring the measured effect to its halfway point) in test [1] (Table 3, IFNγ 50 ng/ml) came to 135 nM; in test [2] (Table 3), 39.9 nM.
`CCOCCn1cc(NC(=O)c2coc(-c3cn[nH]c3)n2)c(-c2ccccn2)n1` [Compound I-21, N-(1-(2-ethoxyethyl)-3-(pyridin-2-yl)-1H-pyrazol-4-yl)-2-(1H-pyrazol-4-yl)oxazole-4-carboxamide]: the EC50 in test [1] (Table 3, IFNγ 50 ng/ml) came out at 170 nM; in test [2] (Table 3), 243 nM.
`CCO[C@H]1C[C@@H](n2cc(NC(=O)c3coc(-c4cn[nH]c4)n3)c(-c3ccccn3)n2)C1` [Compound I-22, N-(1-((1s,3s)-3-ethoxycyclobutyl)-3-(pyridin-2-yl)-1H-pyrazol-4-yl)-2-(1H-pyrazol-4-yl)oxazole-4-carboxamide]: the EC50 turned out to be 36.9 nM in test [1] (Table 3, IFNγ 50 ng/ml) and 43.4 nM in test [2] (Table 3).
Taken in the same sequence, the figures for `O=C(Nc1cn(C2CCC2)nc1-c1ccccn1)c1coc(-c2cn[nH]c2)n1` [Compound I-23, N-(1-cyclobutyl-3-(pyridin-2-yl)-1H-pyrazol-4-yl)-2-(1H-pyrazol-4-yl)oxazole-4-carboxamide] were 71 nM and 270 nM.
For `COCCOCCn1cc(NC(=O)c2coc(-c3cn[nH]c3)n2)c(-c2ccccn2)n1` [Compound I-24, N-(1-(2-(2-methoxyethoxy)ethyl)-3-(pyridin-2-yl)-1H-pyrazol-4-yl)-2-(1H-pyrazol-4-yl)oxazole-4-carboxamide], the EC50 in test [1] (Table 1, IFNγ 50 ng/ml) was found to be 217 nM; in test [2] (Homo sapiens, Table 1) it was 238 nM.
As to `O=C(Nc1cn(CCOCC(F)F)nc1-c1ccccn1)c1coc(-c2cn[nH]c2)n1` [Compound I-25, N-(1-(2-(2,2-difluoroethoxy)ethyl)-3-(pyridin-2-yl)-1H-pyrazol-4-yl)-2-(1H-pyrazol-4-yl)oxazole-4-carboxamide], the EC50 in test [1] (Table 3, IFNγ 50 ng/ml) is 161 nM; in test [2] (Table 3) it was 400 nM.
`O=C(Nc1cn([C@H]2CC[C@H](O)CC2)nc1-c1cnccn1)c1coc(-c2cn[nH]c2)n1` [Compound I-27, N-(1-((1r,4r)-4-hydroxycyclohexyl)-3-(pyrazin-2-yl)-1H-pyrazol-4-yl)-2-(1H-pyrazol-4-yl)oxazole-4-carboxamide]: the EC50 in test [1] (Table 1, IFNγ 50 ng/ml) amounted to 64.1 nM; in test [2] (Homo sapiens, Table 1), 15.8 nM.
As for `CCO[C@H]1CC[C@H](n2cc(NC(=O)c3coc(-c4cn[nH]c4)n3)c(-c3nc(F)c(F)cc3F)n2)CC1` [Compound I-28, N-(1-((1r,4r)-4-ethoxycyclohexyl)-3-(3,5,6-trifluoropyridin-2-yl)-1H-pyrazol-4-yl)-2-(1H-pyrazol-4-yl)oxazole-4-carboxamide], the EC50 in test [1] (Table 1, IFNγ 50 ng/ml) was 111 nM; in test [2] (Homo sapiens, Table 1), 474 nM.
For the compound `CCO[C@H]1CC[C@H](n2cc(NC(=O)c3coc(-c4cn[nH]c4)n3)c(-c3cc(F)cc(F)n3)n2)CC1` [Compound I-29, N-(3-(4,6-difluoropyridin-2-yl)-1-((1r,4r)-4-ethoxycyclohexyl)-1H-pyrazol-4-yl)-2-(1H-pyrazol-4-yl)oxazole-4-carboxamide], the EC50 is 207 nM in test [1] (Table 1, IFNγ 50 ng/ml) and 976 nM in test [2] (Homo sapiens, Table 1).
In the case of `O=C(Nc1cn(C2CCC(N3CCOCC3)CC2)nc1-c1cnccn1)c1coc(-c2cn[nH]c2)n1` (centres unmarked) [Compound I-30, N-(1-((1r,4r)-4-morpholinocyclohexyl)-3-(pyrazin-2-yl)-1H-pyrazol-4-yl)-2-(1H-pyrazol-4-yl)oxazole-4-carboxamide], the EC50 in test [1] (Table 1, IFNγ 50 ng/ml) turned out to be 6.5 nM; in test [2] (Homo sapiens, Table 1), 2.8 nM.
The like results for `CCO[C@H]1CC[C@H](n2cc(NC(=O)c3coc(-c4cn[nH]c4)n3)c(-c3nc(C(F)(F)F)ccc3F)n2)CC1` [Compound I-31, N-(1-((1r,4r)-4-ethoxycyclohexyl)-3-(3-fluoro-6-(trifluoromethyl)pyridin-2-yl)-1H-pyrazol-4-yl)-2-(1H-pyrazol-4-yl)oxazole-4-carboxamide] were, in that order, 973 nM and 688 nM.
Take `CCO[C@H]1CC[C@H](n2cc(NC(=O)c3coc(-c4cn[nH]c4F)n3)c(-c3cnccn3)n2)CC1` [Compound I-32, N-(1-((1r,4r)-4-ethoxycyclohexyl)-3-(pyrazin-2-yl)-1H-pyrazol-4-yl)-2-(5-fluoro-1H-pyrazol-4-yl)oxazole-4-carboxamide]: the EC50 stood at 417 nM in test [1] (Table 1, IFNγ 50 ng/ml); 417 nM in test [1] (Table 2, IFNγ 50 ng/ml); 204 nM in test [2] (Table 1); 204 nM in test [2] (Table 2).
